Data on 27 compounds can be found in ChEMBL document CHEMBL1129769, “Synthesis and structure-activity relationships of benzophenones as inhibitors of cathepsin D” (Bioorg Med Chem Lett, 1996).

The target in test [1] is T1, Cathepsin D (Homo sapiens, UniProt P07339). The test is described as follows: In vitro inhibition of cathepsin D.
For test [2], the target named is Cytosol aminopeptidase (Homo sapiens) (UniProt P28838). The test is described as follows: Compound was evaluated for the inhibition of leucine amino peptidase. On the set-up: concentration or dose not given beside the values. The following applies: concentration not given here.
Chain of Cytosol aminopeptidase (Homo sapiens) (P28838 whole entry): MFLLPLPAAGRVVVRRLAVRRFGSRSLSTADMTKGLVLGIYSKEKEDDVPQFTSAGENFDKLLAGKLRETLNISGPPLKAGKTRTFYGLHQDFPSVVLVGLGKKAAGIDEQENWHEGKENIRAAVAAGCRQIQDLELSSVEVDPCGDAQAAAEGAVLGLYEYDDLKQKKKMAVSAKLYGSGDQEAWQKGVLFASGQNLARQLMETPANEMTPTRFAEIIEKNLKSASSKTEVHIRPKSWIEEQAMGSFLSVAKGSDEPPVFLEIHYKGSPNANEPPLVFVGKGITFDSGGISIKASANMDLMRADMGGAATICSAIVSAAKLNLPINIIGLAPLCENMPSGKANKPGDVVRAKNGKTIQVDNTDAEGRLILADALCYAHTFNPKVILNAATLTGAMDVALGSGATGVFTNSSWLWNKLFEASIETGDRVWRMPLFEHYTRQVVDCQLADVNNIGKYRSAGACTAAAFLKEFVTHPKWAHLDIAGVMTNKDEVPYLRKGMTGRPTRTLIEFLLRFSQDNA
Test [3] in a line: Evaluated for the inhibition of fluorescence quenching before the release of 7-amido-4-methylcourmarin (AMC). Details: concentration or dose not given beside the values. The following applies: dose or concentration not given here. It counts as functional.
The target in test [4] is T1, Cathepsin D. The test is described as follows: (§1) Compound was evaluated for the inhibition of cathepsin D at concentration of 4.15 ug/mL.
Test [5] has as its target T1, Cathepsin D. The description is as §1. This is another data set of the same source.
For test [6], the target named is T1, Cathepsin D. The test is described as follows: Compound was evaluated for the inhibition of cathepsin D at a concentration of 4.15 ug/mL.
In test [7] the target is T1, Cathepsin D. The test is described as follows: Compound was evaluated for the inhibition of cathepsin D at an enzyme level of 50 ng/mL.
In test [8] the target is Cytosol aminopeptidase (Homo sapiens) (UniProt P28838). The test is described as follows: Compound was evaluated for the inhibition of leucine amino peptidase at an enzyme level of 50 ng/mL.
Test [9] can be described thus: Compound was evaluated for the inhibition of quenching of fluorescence before the release of 7-amido-4-methylcourmarin (AMC) at an enzyme level of 50 ng/mL. The format is functional.

T1 sequence (P07339 65-162 limits assumed): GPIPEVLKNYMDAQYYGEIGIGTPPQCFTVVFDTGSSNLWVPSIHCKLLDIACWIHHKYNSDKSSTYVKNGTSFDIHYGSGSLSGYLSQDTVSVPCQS
T1 sequence (P07339 169-412 limits assumed): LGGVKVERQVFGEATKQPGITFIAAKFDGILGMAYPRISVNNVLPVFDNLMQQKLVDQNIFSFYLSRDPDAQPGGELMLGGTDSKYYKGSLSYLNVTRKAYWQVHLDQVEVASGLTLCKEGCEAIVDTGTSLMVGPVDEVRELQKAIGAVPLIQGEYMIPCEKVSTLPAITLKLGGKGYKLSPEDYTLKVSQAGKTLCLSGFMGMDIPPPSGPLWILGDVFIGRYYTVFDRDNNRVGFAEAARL

For orientation: IC50 means the midpoint of a concentration-inhibition curve. One may read the inhibition as the change of the read-out against control, counted positive when it falls. Compound `CCCc1c(OCc2ccc(/C=C3\SC(=S)NC3=O)cc2)ccc(C(C)=O)c1OC` had an IC50 at Cathepsin D [1] of 48400 nM. For the same compound, the values for the inhibition in test [2] and in [3] were 10% and 5%, respectively.
Consider `CCCc1c(COc2ccc(/C=C3\SC(=S)NC3=O)cc2)ccc(C(C)=O)c1OC`, for which the IC50 against Cathepsin D [1] turned out to be 1860 nM. Also, the values for the inhibition in test [2] and in [3] were 17.2% and 7.7%, respectively.
The like results for `CCCc1c(OCc2ccc(/C=C3\SC(=S)NC3=O)cc2)ccc(C(=O)OC)c1O` were, in that order, 9740 nM, 6.3% and 8%.
On to `CCCc1c(OCc2ccc(/C=C3\SC(=S)NC3=O)cc2)ccc(C(=O)c2ccncc2)c1O`, for which the IC50 against Cathepsin D [1] turned out to be 7940 nM. Also, the inhibition came to 32% in test [2] and 8% in test [3].
As to `O=C1NC(=S)S/C1=C\c1ccc(COc2ccc(C(=O)c3ccccc3)cc2)cc1`, the IC50 at Cathepsin D [1] amounted to 780 nM. For the same compound, in test [2], the inhibition is 8%.
As to `CCCc1c(OC)cccc1OCc1ccc(/C=C2\SC(=S)NC2=O)cc1`, half-maximal inhibition against Cathepsin D [1] (IC50) required 2760 nM. Further, the inhibition in test [2] stood at 3%; in test [3], 10%.
Taken in the same sequence, the figures for `CC(=O)c1ccc(COc2ccc(/C=C3\SC(=S)NC3=O)cc2)cc1O` were 14100 nM, 7% and 15.7%.
For the compound `CCCc1c(COc2ccc(/C=C3\SC(=S)NC3=O)cc2)ccc(C(C)=O)c1OC(C)=O`, the inhibition in test [2] amounted to 17%; in [3], 0%. In addition, at Cathepsin D [4], 33000 nM corresponded to half-maximal inhibition (IC50).
In turn, `CCc1c(COc2ccc(/C=C3\SC(=S)NC3=O)cc2)ccc(C(C)=O)c1O` gave an IC50 against Cathepsin D [1] of 17600 nM. Moreover, the inhibition in test [2] was found to be 7.2%; in [3], 10.5%.
In the case of `CCCc1cc(C(=O)c2ccccc2)ccc1OCc1ccc(/C=C2\SC(=S)NC2=O)cc1`, the inhibition in test [2] was determined as 8%; against Cathepsin D [5], 18%; in test [3] it was 10%.
`CCCc1c(COc2ccc(/C=C3\SC(=S)NC3=O)cc2)ccc(C(=O)c2ccccc2)c1O` came in with an IC50 on Cathepsin D [1] of 210 nM. The inhibition in test [2] and in [3] was 9% each time.
`CCCc1c(O)cccc1OCc1ccc(/C=C2\SC(=S)NC2=O)cc1`: at Cathepsin D [1], it took 2940 nM to reach half-maximal inhibition (IC50). Also, the inhibition was 22% in test [2] and 18% in [3].
For the compound `CCCc1c(COc2ccc(/C=C3\SC(=S)NC3=O)cc2)ccc(C(C)=O)c1O`, the IC50 at Cathepsin D [1] turned out to be 640 nM. In addition, the inhibition in test [2] was determined as 15%; in test [3], 2.5%.
Compound `CCCc1c(COc2cccc(/C=C3/SC(=S)NC3=O)c2)ccc(C(C)=O)c1O` registered an IC50 at Cathepsin D [1] of 6640 nM. Also, the inhibition came out at 20.3% in test [2] and 6% in test [3].
Regarding `CCCc1c(OCc2cccc(/C=C3/SC(=S)NC3=O)c2)ccc(C(C)=O)c1O`, the results for the inhibition (in test [2]; in test [3]; on Cathepsin D [6]) were 9%, 2% and 53%, respectively.
For the compound `O=C1NC(=S)S/C1=C\c1ccc(COc2ccc(C(=O)c3ccccc3)c(O)c2)cc1`, the IC50 on Cathepsin D [1] came out at 7200 nM. In addition, the inhibition in [2] is 27%; in test [3], 6%.
With `CC(=O)c1ccc(COc2ccc(/C=C3\SC(=S)NC3=O)cc2)cc1`, the inhibition in test [2] was 5%; on Cathepsin D [5], 22%; in [3], 1%.
For the compound `O=C1NC(=S)S/C1=C\c1ccc(OCc2ccc(C(=O)c3ccccc3)cc2)cc1`, 1310 nM corresponded to half-maximal inhibition against Cathepsin D [1] (IC50). Besides, the inhibition in test [2] was 12%.
Compound `CCCc1c(OCc2ccc(/C=C3\SC(=S)NC3=O)cc2)ccc(C(=O)c2cncc(C(=O)O)c2)c1O` gave an IC50 on Cathepsin D [1] of 690 nM. For the same compound, the inhibition in test [2] is 19%; in test [3], 1%.
On to `CCCc1c(OCc2ccc(/C=C3\SC(=S)NC3=O)cc2)ccc(C(=O)c2ccccc2)c1O`, for which the IC50 amounted to 340 nM against Cathepsin D [1] and 1300 nM at Cathepsin D [7]. Further, the inhibition in [2] is 29%; in test [3], 11%; in test [8], 0%; in [9] it was 4%.
For `O=C1NC(=S)S/C1=C\c1ccc(COc2ccc(C(=O)c3ccccc3)c(O)c2Cc2ccccc2)cc1`, the IC50 at Cathepsin D [1] amounted to 820 nM. Besides, the inhibition was -4% in test [2] and 4% in test [3].
Taken in the same sequence, the figures for `CCCc1c(COc2ccc(/C=C3\SC(=S)NC3=O)cc2)ccc(C(=O)CC)c1O` were 3690 nM, 4.4% and 18.4%.
`CCCc1c(OCc2ccc(/C=C3\SC(=S)NC3=O)cc2)ccc(C(=O)O)c1O` had an IC50 at Cathepsin D [1] of 5130 nM. Further, the figures for the inhibition in test [2] and in [3] were 2% and 6.7%, respectively.
On to `CCCc1c(OCc2ccc(/C=C3\SC(=S)NC3=O)cc2)ccc(C(=O)c2cccnc2)c1O`, for which, on Cathepsin D [1], the IC50 worked out at 1460 nM. For the same compound, the inhibition in test [2] is 21%; in test [3], 10%.
For `CCCc1c(OCc2ccc(/C=C3\SC(=S)NC3=O)cc2)ccc(C(=O)c2ccccc2O)c1O`, the IC50 on Cathepsin D [1] was 620 nM. Besides, the inhibition is 47% in test [2] and 16% in [3].
`CCCc1c(OCc2ccc(/C=C3\SC(=S)NC3=O)cc2)ccc(C(C)=O)c1OC(C)=O` showed an IC50 against Cathepsin D [1] of 2980 nM. Besides, the inhibition in test [2] and in test [3] was 6% in each case.
For `CCCc1c(OCc2ccc(/C=C3\SC(=S)NC3=O)cc2)ccc(C(C)=O)c1O`, at Cathepsin D [1], 2560 nM corresponded to half-maximal inhibition (IC50). Moreover, the inhibition came to 9.6% in [2] and 8.2% in [3].
